Measured values: PubChem BioAssay AID1918933 (Molecular Pharmacology Branch, DTP, NCI, 2023)
Where “and” joins values, the source holds several entries; their conditions need not be identical. Identical values can stand only once.

Test system: 186277-243-T-J2-PDC complex spheroid viability
Experiment: Anticancer human tumor 186277-243-T-J2-PDC patient-derived colon adenocarcinoma cell line growth inhibition
Settings: for viability, T/C: stronger effect = lower value
Source text: Multicellular complex tumor spheroid response to LSD1 Inhibitor Iadademstat in combination with a variety of drugs and investigational agents in selected tumor cell lines
The current study was undertaken to assess response to LSD1 inhibitors in combination with standard-of-care drugs and investigational agents in solid tumor complex spheroid models as well as in the K-562 leukemia. Complex spheroids include a stromal component modeled by human endothelial cells (HUVEC) and fibroblasts modeled by human mesenchymal stem cells (MSCs). The concentration ranges selected for each drug and investigational agent were based upon clinically achievable concentrations if the clinical Cmax of the agent was known.
Compounds. The drugs and investigational agents used in this study are listed on Table 1. All of the agents used, including staurosporine (NSC755774) and gemcitabine (NSC613327), were obtained from the Developmental Therapeutics Program, NCI. FDA-approved anticancer drugs are available from the NCI at http://dtp.nci.nih.gov/branches/dscb/oncology_drugset_explanation.html. Drugs and investigational agents were >95% pure by proton nuclear magnetic resonance (NMR) and liquid chromatography/mass spectrometry (LC/MS). Stock solutions were prepared at 400x in DMSO, stored at -70 degrees C, and diluted in fresh medium prior to their use. The final concentration of DMSO in cell culture wells never exceeded 0.25% (v/v). The FDA-approved anticancer drug set is available from the Developmental Therapeutics Program at https://dtp.cancer.gov/organization/dscb/obtaining/available_plates.htm. All drugs and investigational agents were tested over a range starting from a high concentration at or near the clinical Cmax and decreasing in half-log increments. If the clinical Cmax for an agent had not been determined, the highest concentration tested was 10 microM.
Cell Lines. The patient-derived cancer cell (PDC) lines: 292921-168-R-J2-PDC, K24384-001-R-PDC, and 521955-158-R2-J5-PDC pancreatic carcinomas, 556581-035-R-J1 ovarian carcinoma, 324938-238-R-J1-PDC, 855422-203-R-J1-PDC and 883617-216-R-J1-PDC urothelial bladder carcinomas, 743489-274-T-PDC renal cell carcinoma, 138582-R-J1 Merkel cell tumor, K60290-347-R-J1 and K57222-313-R-J1-PDC glioblastomas, 653999-131-R-J2-PDC, LG0703-F948-PDC, and 349418-098-R-PDC non-small cell lung carcinomas, 885512-296-R-J2-PDC, 171881-019-R-J1-PDC breast carcinomas and 186277-243-T-J2-PDC and 233499-124-R-J2-PDC colon carcinomas were obtained from the NCI Patient-Derived Models Repository (PDMR, https://pdmr.cancer.gov). The established cell lines NCI/ADR-RES (RRID:CVCL_14520 and OVCAR-5 (RRID:CVCL_1628) ovarian carcinomas, 786-O (RRID:CVCL_1051) and A498 (RRID:CVCL_A498) renal cell carcinoma, NCI-H211 (ATCC, cat. CRL-5824; RRID:CVCL_1529), NCI-H196 (ATCC, cat. CRL-5823, RRID:CVCL_1509), SW 1271 (ATCC, cat. CRL-2177, RRID:CVCL_1716) and NCI-H1876 (ATCC, cat. CRL-5902, RRID:CVCL_1503) small cell lung carcinomas, MDA-MB-231 (RRID:CVCL_0062) and MDA-MB-468 (RRID:CVCL_0419)breast carcinomas (10-12). Pooled donor human umbilical vein endothelial cells (HUVEC, Lonza, cat. CC-2519) and human mesenchymal stem cells (hMSC, Lonza, cat. PT-2501) were purchased from Lonza (Walkersville, MD).
Cell Culture. All cells were maintained in an incubator at 37 degrees C and 5% CO2 with 95% humidity. The PDC lines were cultured according to standard operating procedures established by the NCI PDMR (https://pdmr.cancer.gov). Briefly all PDCs were thawed and cultured in Matrigel-coated flasks prepared with a working solution of 1X Ham's F-12 nutrient mix, without supplementation (Invitrogen, Waltham, MA, cat. 11765054), 100 U/mL penicillin-streptomycin (Invitrogen, cat. 15140122), and 2.5% Matrigel (Corning Inc., Corning, NY, cat. 354248) for the first three passages. […]
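Further: 7 day exposure to compounds.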
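Wherever viability, T/C is given: 100% = DMSO vehicle control viability.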

Row | IC50 (curve of compound) | SMILES | viability, T/C (compound 0.01 µM) | viability, T/C (compound 0.0316 µM) | viability, T/C (compound 0.1 µM) | viability, T/C (compound 0.00316 µM) | viability, T/C (compound 0.316 µM) | viability, T/C (compound 1 µM) | viability, T/C (compound 0.00949 µM) | viability, T/C (compound 0.03 µM) | viability, T/C (compound 0.0949 µM) | viability, T/C (compound 0.3 µM) | further results
1 | 2.74 nM and 0.548 nM | CC(C)CC(NC(=O)C(Cc1ccccc1)NC(=O)c1cnccn1)B(O)O (configuration not stated) | 3.46% and 0.11% | 2.69% and 0.11% | 3.82% and 0.17% |  |  |  |  |  |  |  | viability, T/C (compound 0.000316 µM): 96.1% and 94%
2 | 15.3 nM and 10.2 nM | CC(C)CC(NC(=O)CNC(=O)c1cc(Cl)ccc1Cl)B1OC(=O)CC(CC(=O)O)(C(=O)O)O1 (configuration not stated) | 70.7% and 51.2% | 14.8% and 2.68% | 6.24% and 0.35% | 101% and 94.2% |  |  |  |  |  |  | viability, T/C (compound 0.000316 µM): 99.8% and 95.4%; viability, T/C (compound 0.001 µM): 99.4% and 103%
3 | > 10000 nM | CC(C)c1c(-c2ccccc2)nc2c(C#N)c[nH]n2c1=O |  | 94.8% and 108% | 93.3% and 97.7% |  | 101% and 99.1% | 97.6% and 97.4% |  |  |  |  | viability, T/C (compound 3.16 µM): 96% and 82.9%; viability, T/C (compound 10 µM): 85.3% and 72.9%
4 | 3360 nM and 2210 nM | CC1(C)CCC(CN2CCN(c3ccc(C(=O)NS(=O)(=O)c4ccc(NCC5CCOCC5)c([N+](=O)[O-])c4)c(Oc4cnc5[nH]ccc5c4)c3)CC2)=C(c2ccc(Cl)cc2)C1 |  | 100% and 109% | 108% and 90.4% |  | 93% and 94.6% | 95.7% and 97.7% |  |  |  |  | viability, T/C (compound 3.16 µM): 52.1% and 28.3%; viability, T/C (compound 10 µM): 8.65% and 0.19%
5 | 6.15 nM and < 3.16 nM | CC1COCCN1c1cc(-c2ccnn2C)c2ccnc(-c3ccn[nH]3)c2n1 (configuration not stated) | 30.1% and 14% | 11.1% and 8.92% | 9.14% and 7.83% | 77.4% and 18.2% | 10.1% and 8.98% | 11.4% and 7.8% |  |  |  |  | 
6 | 278 nM and 952 nM | CC1COCCN1c1cc(C2(S(C)(=N)=O)CC2)nc(-c2ccnc3[nH]ccc23)n1 (configuration not stated) |  | 103% and 87.2% | 93.4% and 94.7% |  | 44.4% and 91.3% | 14.2% and 48% |  |  |  |  | viability, T/C (compound 3.16 µM): 8.73% and 10%; viability, T/C (compound 10 µM): 9.16% and 5.79%
7 | > 3000 nM and 2200 nM | CCN(c1cc(-c2ccc(CN3CCOCC3)cc2)cc(C(=O)NCc2c(C)cc(C)[nH]c2=O)c1C)C1CCOCC1 |  |  |  |  |  |  | 106% and 93.9% | 99.2% and 112% | 108% and 96.8% | 99.2% and 104% | viability, T/C (compound 0.949 µM): 99.2% and 108%; viability, T/C (compound 3 µM): 101% and 30.2%
8 | 75.9 nM and 61.3 nM | CC[C@@]1(O)C(=O)OCc2c1cc1n(c2=O)Cc2cc3c(CN(C)C)c(O)ccc3nc2-1 | 93.4% and 118% | 74.8% and 75.9% | 41.5% and 30.9% | 95.7% and 113% |  |  |  |  |  |  | viability, T/C (compound 0.000316 µM): 113% and 102%; viability, T/C (compound 0.001 µM): 101% and 98%
9 | < 0.949 nM | CCc1c2c(nc3ccc(O)cc13)-c1cc3c(c(=O)n1C2)COC(=O)[C@]3(O)CC |  |  |  |  |  |  | 31.5% and 23.3% | 22% and 4.12% | 2.19% and 0.43% | 0.75% and 0.28% | viability, T/C (compound 0.000949 µM): 48.5% and 39.8%; viability, T/C (compound 0.003 µM): 35.5% and 27%
10 | 1700 nM and 618 nM | COc1cc(C2c3cc4c(cc3C(OC3OC5COC(C)OC5C(O)C3O)C3COC(=O)C23)OCO4)cc(OC)c1O (configuration not stated) |  |  |  |  |  |  | 101% and 112% | 100% and 124% | 92.8% and 98.9% | 75.2% and 70.9% | viability, T/C (compound 0.949 µM): 61.2% and 39%; viability, T/C (compound 3 µM): 40.3% and 17.3%
11 |  | COc1cc(Nc2ncc3c(n2)-c2ccc(Cl)cc2C(c2c(F)cccc2OC)=NC3)ccc1C(=O)O | 57.4% and 106% | 30.4% and 99.2% | 8.56% and 98.8% | 101% and 116% |  |  |  |  |  |  | 
12 | 2970 nM and 4370 nM | COc1ccc([C@@H](O)c2cc(-c3ncnc4cc(N5CCOCC5)ccc34)c(F)cc2Cl)nn1 |  | 103% and 101% | 104% and 100% |  | 87.8% and 101% | 84.4% and 100% |  |  |  |  | viability, T/C (compound 3.16 µM): 46.7% and 64.8%; viability, T/C (compound 10 µM): 3.51% and 12.2%
13 | > 100 nM | Cn1ncnc1C1c2n[nH]c(=O)c3cc(F)cc(c23)NC1c1ccc(F)cc1 (configuration not stated) | 97.5% and 93.7% | 94.1% and 101% | 97.3% and 108% | 97.8% and 95.2% |  |  |  |  |  |  | viability, T/C (compound 0.000316 µM): 101% and 106%; viability, T/C (compound 0.001 µM): 98.5% and 98%
14 |  | NC1CC1c1ccc(-c2cccc(O)c2)cc1 (configuration not stated) |  |  | 101% |  | 102% [middle of 25 runs] |  |  |  |  |  | viability, T/C (compound 3.16 µM): 107% [middle of 25 runs]; IC50 (compound alone, run of 02/01/2022): > 10000 nM
15 |  | NC1CCC(NC2CC2c2ccccc2)CC1 (configuration not stated) |  |  |  |  | 104% and 114% |  |  |  |  |  | IC50 (compound alone, run of 01/18/2022): > 10000 nM
16 | 180 nM and 162 nM | NS(=O)(=O)OCC1CC(n2ccc3c(NC4CCc5ccccc54)ncnc32)CC1O (configuration not stated) |  |  |  |  |  |  | 93.9% and 100% | 94.9% and 85.9% | 62.6% and 66.7% | 37.2% and 33% | viability, T/C (compound 0.949 µM): 20.5% and 9.16%; viability, T/C (compound 3 µM): 7.98% and 4.41%
17 | 1310 nM and 628 nM | Nc1ccccc1NC(=O)c1ccc(CNC(=O)OCc2cccnc2)cc1 |  |  |  |  |  |  | 99.8% and 104% | 99.2% and 98.5% | 102% and 106% | 88.2% and 103% | viability, T/C (compound 0.949 µM): 64.4% and 20.6%; viability, T/C (compound 3 µM): 14.5% and 1.27%
18 | < 0.949 nM and 2.23 nM | Nc1ccn(C2OC(CO)C(O)C2(F)F)c(=O)n1 (configuration not stated) |  |  |  |  |  |  | 16.5% and 13% | 16.5% and 11.9% | 17.1% and 12.7% | 14.7% and 14% | viability, T/C (compound 0.000949 µM): 17.2% and 101%; viability, T/C (compound 0.003 µM): 16.7% and 32.3%
19 | > 1000 nM | Nc1ncn(C2CC(O)C(CO)O2)c(=O)n1 (configuration not stated) | 102% and 99.4% | 97.3% and 94.3% | 113% and 112% | 93.4% and 108% | 113% and 133% | 104% and 141% |  |  |  |  | 
20 | 69.6 nM and 104 nM | Nc1ncn(C2CC(O)C(CO)S2)c(=O)n1 (configuration not stated) |  |  |  |  |  |  | 99.9% and 109% | 83.4% and 99.1% | 37.5% and 53.4% | 11.7% and 12% | viability, T/C (compound 0.000949 µM): 109% and 96.1%; viability, T/C (compound 0.003 µM): 118% and 104%
21 | 223 nM and 234 nM | O=C(C=Cc1cccc(S(=O)(=O)Nc2ccccc2)c1)NO |  |  |  |  |  |  | 102% and 94.1% | 100% and 96.4% | 84.3% and 80.5% | 36.6% and 22.1% | viability, T/C (compound 0.949 µM): 15.3% and 3.68%
22 | 19.4 nM and 56.4 nM | O=C(C=Cn1cnc(-c2cc(C(F)(F)F)cc(C(F)(F)F)c2)n1)NNc1cnccn1 | 85.8% and 106% | 23.5% and 84.3% | 9.4% and 15.8% | 98.1% and 93.5% | 5.65% and 4.97% | 0.55% and 2.09% |  |  |  |  | 
23 | > 10000 nM | O=C(c1cc(Cc2n[nH]c(=O)c3ccccc23)ccc1F)N1CCN(C(=O)C2CC2)CC1 |  | 100% and 90.9% | 102% and 106% |  | 105% and 103% | 93.5% and 95.7% |  |  |  |  | viability, T/C (compound 3.16 µM): 69.7% and 113%; viability, T/C (compound 10 µM): 54.8% and 86.6%
